In US20250127857A1, “A COMPOSITION COMPRISING IL-36 AND/OR IL-18 FOR USE IN TREATING OCULAR DISORDERS” (THE PROVOST, FELLOWS, FOUNDATION SCHOLARS, & THE OTHER …, priority 2021, published 2025):

Columns and labels:
[1] = test system: HRMEC; assay: Wound healing (scratch) assay in HRMEC, IL-18; format: cell-based, human; conditions: IL-18, VEGF, bFGF each 50 ng/ml, closure expressed as % closure
Protocol: FIG. 16 illustrates HRMEC migration in response to IL-18 and IL-1α stimulation, wherein confluent HRMEC monolayers were scratched with a pipette tip and treated with IL-18 (50 ng/ml) or IL-1α (10 ng/ml) along with bFGF (50 ng/ml) or VEGF (50 ng/ml) as positive controls, wherein images were taken immediately following scratch (0 hrs) and at 4, 8 and 24 hours following scratch, wherein images were analysed using ImageJ imaging software, wherein data are presented as mean±SEM of 6 separate experiments in triplicate, wherein data were analysed using 2way ANOVA with Dunnett's multiple comparison test. (*p<0.05, *p<0.01, ****p<0.0001);
Cells were seeded on to a 12-well plate and grown until they reached confluency. 24 hours prior to the scratch, culture medium was replaced with 0.5% Serum media without supplements for 24 hours to induce cell quiescence. Cell monolayers were scratched once down the centre of the well using a p200 pipette tip and washed once with warmed DPBS to remove debris then replaced with 0.5% serum supplemented media with experimental treatments. Images were acquired using an Olympus IX51 inverted microscope with Cell^A imaging software (Olympus). Images were taken at baseline immediately following scratch and at suitable timepoints for up to 24 (HRMECs) or 48 hours (BMVECs). The area within the scratch was quantified using ImageJ software, and each timepoint was normalised to its baseline and expressed as % closure.

[2] = test system: cldn5, tricellulin, ZO-1 and VE-cadherin mRNA in HRMEC; assay: Real-time qPCR of junction components; format: cell-based, human; conditions: 100 ng/ml IL-36β or 10 μM RepSox, 24 hours
Source text: […]

[3] = test system: HRMEC; assay: MTS assay of HRMEC proliferation with VEGF and IL-18; format: cell-based, human; conditions: VEGF alone
Protocol: FIG. 17 illustrates HRMEC proliferation in response to VEGF is enhanced with IL-18 pre-treatment, wherein HRMECs were treated with increasing concentrations of VEGF alone or with a 24 hour pre-treatment of IL-18 at 10, 100 or 1000 ng/ml, wherein increasing VEGF induced an increase in cell proliferation which was enhanced following IL-18 treatment;
Cell viability was assessed using the CellTiter 96 AQueous One Solution cell proliferation MTS assay (Promega) as per the manufacturer's instructions. Cell monolayers were treated for times indicated where treatment supplemented media was then removed and incubated with 20 μl of CellTiter 96 AQueous One Solution in 100 μl of complete growth medium in a humidified incubator at 37° C. with 5% CO2for 1-4 hours. The absorbance of each well was measured at 490 nm using a SynergyMX plate reader (Biotek, Gen5™).

[4] = test system: occludin; assay: Occludin expression in HRMEC (qPCR and immunoblotting); format: cell-based, human; conditions: for expression of tight junction protein occludin: single cytokine
Protocol: FIG. 18 illustrates IL-18 drives expression of tight junction protein occludin and inhibits VEGF depletion of occluding, wherein HRMECS were treated with either VEGF, IL-18 or IL-1α for the timepoints indicated (top panel) and cells were prepared for RNA isolation and qPCR with expression of occluding measured, wherein HRMECs were treated with VEGF, IL-18 or IL-1 or combinations of these cytokines and cells were prepared for immunoblotting for expression of occludin and b-actin (lower panels);
Following transfer, membranes were blocked by incubating in 5% non-fat dried milk (Marvel) in TBS-T for 1 hour at room temperature whilst shaking. Membranes were incubated with primary antibody diluted in either 5% Marvel or BSA, depending on antibody specification, overnight at 4° C. with gentle agitation. Primary antibody was recovered and stored at −20. Membranes were washed three times in TBS-T for 5 minutes and membranes were incubated with secondary antibody, diluted in 5% Marvel, for 1 hour at room temperature. Secondary antibody was removed and discarded, and excess secondary was removed from the membranes by three 5-minute washes in TBS-T.
All RT-PCR assays were carried out using the SensiFAST SYBR Hi-ROX Kit (Bioline) with primers designed using Primer-BLAST (NCBI). For each target a master-mix comprising of 4 μl SYBR Green mix, 0.5 μl of Forward primer (4 μM) and 0.5 μl of Reverse primer (4 μM) along and 3 μl of RNAse free H2O was prepared and mixed thoroughly by vortexing. 8 μl of master-mix was added to each well of a 0.1 mL MicroAMP® Fast 96-well Reaction Plate (Applied Biosystems), along with 2 μl of cDNA and sealed using Optical adhesive film (Applied Biosystems) and spun down for 30 seconds in a centrifuge fitted with microplate rotor (Eppendorf) before running. Plate were run using a QuantStudio 3 real-time PCR System (Applied Biosystems) or the StepOnePlus Real-Time PCR System (Applied Biosystems), with run conditions set as: 50° C. for 2 mins, 95° C. for 10 minutes, 40 cycles of 95° C. for 15 seconds then 60° C. for 1 minute. To assess the quality of Primers a melt-curve stage was added: 95° C. for 1 second, 60° C. for 20 seconds, 95° C. for 1 second. Data were analysed using the QuantStudio™ Design & Analysis software (Applied Biosystems) and using the comparative Ct (ΔΔCt) method where test samples were normalised to endogenous control (β-Actin) followed by normalising the ΔCt of test samples to sample control (untreated sample), then calculating 2^−ΔΔCt to find the relative fold change of test samples over sample control.

[5] = test system: IL-36R; conditions: HRMEC, VEGF treatment over timepoints

| Molecule | mean difference in wound closure vs no treatment (xdiff) ([1]; 8 hours post scratch) | mean difference in wound closure vs no treatment (xdiff) ([1]; 24 hours post scratch) | ZO-1 transcript (qPCR) [2] | HRMEC proliferation with increasing doses of VEGF [3] | expression of tight junction protein occludin [4] | IL-36R expression [5] | rescue of VEGF mediated occludin inhibition ([4]; combination with VEGF, immunoblotting) |
| --- | --- | --- | --- | --- | --- | --- | --- |
| FGF: bFGF (50 ng/ml) used as positive control in scratch assay | −4.366 | −28.4 | – | – | – | – | – |
| Cc1cccc(-c2[nH]ncc2-c2ccc3ncccc3n2)n1 [RepSox] | – | – | appeared unaffected | – | – | – | – |
| VEGF | −9.35 | −12.25 | – | increase in proliferation up to 5 ng/ml | reduced expression of occludin | reduces IL-36R expression | – |
| IL-1α: human IL-1α (R&D systems) (protein, UniProt P01583 113-271, looked up) Interleukin-1 alpha: SAPFSFLSNVKYNFMRIIKYEFILNDALNQSIIRANDQYLTAAALHNLDEAVKFDMGAYKSSKDDAKITVILRISKTQLYVTAQDEDQPVLLKEMPEIPKTITGSETNLLFFWETHGTKNYFTSVAHPNLFIATKQDYWVCLAGGPPSITDFQILENQA | – | – | – | – | reduced expression of occludin | – | does not rescue VEGF mediated occludin inhibition |
